Experimental data as given in PubChem BioAssay (NCI).
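Dose response: 5 concentrations. Exposure: 48 h. Format: 96-well plates. Endpoint: linear interpolation; highest concentration if not reached. GI50: concentration for 50% inhibition of growth. TGI marks complete inhibition of growth.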

Columns and labels:
Experiment in all cases: growth of human tumour cells (NCI), 48 h
[1] = system: COLO 205 colon
[2] = system: SK-MEL-28 melanoma
[3] = system: OVCAR-3 ovarian
[4] = system: SK-MEL-5 melanoma
[5] = system: HT29 colon
[6] = system: HCC-2998 colon
[7] = system: MCF7 breast
[8] = system: MDA-MB-231 breast
[9] = system: UACC-257 melanoma
[10] = system: NCI-H522 lung
[11] = system: SR leukemia
[12] = system: SNB-19 CNS
[13] = system: IGROV1 ovarian
[14] = system: SF-539 CNS
[15] = system: RXF 393 renal
[16] = system: SNB-75 CNS
[17] = system: MOLT-4 leukemia
[18] = system: PC-3 prostate
[19] = system: ACHN renal
[20] = system: DU-145 prostate
[21] = system: EKVX NSCLC
[22] = system: HCT-116 colon
[23] = system: CCRF-CEM leukemia
[24] = system: A498 renal
[25] = system: KM12 colon
[26] = system: TK-10 renal
[27] = system: CAKI-1 renal
[28] = system: SF-268 CNS
[29] = system: A549 NSCLC
[30] = system: SK-MEL-2 melanoma
[31] = system: HOP-62 NSCLC
[32] = system: HS 578T breast
[33] = system: T-47D breast
[34] = system: MDA-MB-435
[35] = system: NCI-H23 lung
[36] = system: SF-295 CNS
[37] = system: HL-60(TB) leukemia
[38] = system: BT-549 breast
[39] = system: NCI/ADR-RES ovarian
[40] = system: HCT-15 colon
[41] = system: NCI-H460 lung
[42] = system: OVCAR-4 ovarian
[43] = system: K-562 leukemia
[44] = system: RPMI-8226 leukemia
[45] = system: UACC-62 melanoma
[46] = system: OVCAR-5 ovarian
[47] = system: SN12C renal
[48] = system: U251 CNS
[49] = system: SK-OV-3 ovarian
[50] = system: SW-620 colon
[51] = system: NCI-H226 lung
[52] = system: MALME-3M melanoma
[53] = system: OVCAR-8 ovarian
[54] = system: HOP-92 NSCLC
[55] = system: LOX IMVI melanoma

Q: What does the source list for `COc1cccc(C2SC(C)C(=O)N2CCc2cccs2)c1` (stereo not given)?
A: GI50 [1]: 1.47 µM; TGI [1]: 2.82 µM; GI50 [2]: 3.6 µM; TGI [2]: 14 µM; GI50 [3]: 2.04 µM; TGI [3]: 7.6 µM; GI50 [4]: 1.58 µM; TGI [4]: 2.96 µM; GI50 [5]: 3.24 µM; TGI [5]: 12 µM; GI50 [6]: 2.93 µM; TGI [6]: 12.3 µM; GI50 [7]: 3.02 µM; TGI [7]: 12.7 µM; GI50 [8]: 2.72 µM; TGI [8]: 13.9 µM; GI50 [9]: 3.17 µM; TGI [9]: 10.3 µM; GI50 [10]: 1.71 µM; TGI [10]: 5.15 µM; GI50 [11]: 2.5 µM; TGI [11]: 15.5 µM; GI50 [12]: 2.96 µM; TGI [12]: 13.7 µM; GI50 [13]: 2.01 µM; TGI [13]: 15.7 µM; GI50 [14]: 3.6 µM; TGI [14]: 13.6 µM; GI50 [15]: 4.26 µM; TGI [15]: 16.4 µM; GI50 [16]: 3.2 µM; TGI [16]: 15.7 µM; GI50 [17]: 2.34 µM; TGI [17]: 10.7 µM; GI50 [18]: 2.05 µM; TGI [18]: 8.65 µM; GI50 [19]: 3.34 µM; TGI [19]: 13.8 µM; GI50 [20]: 3.95 µM; TGI [20]: 14.9 µM; GI50 [21]: 1.49 µM; TGI [21]: 10.7 µM; GI50 [22]: 1.89 µM; TGI [22]: 8.36 µM; GI50 [23]: 3.01 µM; TGI [23]: 22.3 µM; GI50 [24]: 1.25 µM; TGI [24]: 10.5 µM; GI50 [25]: 2.67 µM; TGI [25]: 8.99 µM; GI50 [26]: 2.79 µM; TGI [26]: 11.7 µM; GI50 [27]: 2.07 µM; TGI [27]: 10.5 µM; GI50 [28]: 2.72 µM; TGI [28]: 13 µM; GI50 [29]: 3.39 µM; TGI [29]: 12.7 µM; GI50 [30]: 2.77 µM; TGI [30]: 11.5 µM; GI50 [31]: 3.12 µM; TGI [31]: 14.9 µM; GI50 [32]: 2.56 µM; TGI [32]: 26.8 µM; GI50 [33]: 1.78 µM; TGI [33]: 11.6 µM; GI50 [34]: 2.16 µM; TGI [34]: 7.28 µM; GI50 [35]: 2.62 µM; TGI [35]: 12.1 µM; GI50 [36]: 2.68 µM; TGI [36]: 11.2 µM; GI50 [37]: 2.59 µM; TGI [37]: 7.49 µM; GI50 [38]: 2.69 µM; TGI [38]: 9.11 µM; GI50 [39]: 2.6 µM; TGI [39]: 12.7 µM; GI50 [40]: 2.75 µM; TGI [40]: 12.5 µM; GI50 [41]: 2.83 µM; TGI [41]: 11 µM; GI50 [42]: 2.25 µM; TGI [42]: 11.2 µM; GI50 [43]: 2.81 µM; TGI [43]: > 100 µM; GI50 [44]: 1.88 µM; TGI [44]: 5.39 µM; GI50 [45]: 1.76 µM; TGI [45]: 10.7 µM; GI50 [46]: 4.05 µM; TGI [46]: 20 µM; GI50 [47]: 3.15 µM; TGI [47]: 13.5 µM; GI50 [48]: 3.1 µM; TGI [48]: 11.2 µM; GI50 [49]: 2.95 µM; TGI [49]: 13.2 µM; GI50 [50]: 3.48 µM; TGI [50]: 15.7 µM; GI50 [51]: 3.15 µM; TGI [51]: 17.2 µM; GI50 [52]: 2.19 µM; TGI [52]: 8.09 µM; GI50 [53]: 3.49 µM; TGI [53]: 14.3 µM; GI50 [54]: 1.16 µM; TGI [54]: 4.37 µM; GI50 [55]: 2.48 µM; TGI [55]: 11.6 µM
